Measured values reported in publication PMC8955265, “Systematic Discovery of FBXW7-Binding Phosphodegrons Highlights Mitogen-Activated Protein Kinases as Important Regulators of Intracellular Protein Levels” (International Journal of Molecular Sciences, 2022).
Where a SMILES comes first, the peptide text is derived from it. [ ]: non-standard residue; d: D form. The star is where a group is joined. 5FAM = O=C1OC2(c3ccc(O)cc3Oc3cc(O)ccc32)c2ccc(C(=O)*)cc21; pT = C[C@@H](OP(=O)(O)O)[C@H](N)C(=O)O; pS = N[C@@H](COP(=O)(O)O)C(=O)O; Cbz = O=C(OCc1ccccc1)*

Columns and labels:
[1] = test system: FBXW7-mediated protein degradation; test: Ratiometric DsRed/EGFP protein level assay of full-length proteins with kinase inhibitors; format: cell-based, HEK293T cells; conditions: for ZMIZ1 level: full-length ZMIZ1, HEK293T + FBXW7, inhibitor 2 µM
Experimental: (§1) HEK293T cells (purchased from ATCC, CRL-3216) were cultured in Dulbecco’s Modified Eagle’s Medium (DMEM, Gibco, Waltham, MA, USA) containing 10% FBS (Gibco, Cat# 10500064), 100 µg/mL Pen/strep (Sigma, P0781) and Amphotericin B (Thermo Fisher, 15290026) at 37 °C in an atmosphere of 5% CO2. Approximately 90,000 cells were plated in 24-well Greiner bio-one plates (#662-160). The next day cells were transfected with Lipofectamine 3000 reagent (L3000001, Invitrogen, Waltham, MA, USA) using the Opti-MEM reduced serum media (Gibco, 31985062). The transfection media was changed with complete DMEM after 4–6 h of transfection. Cells in a 24-well plate were transfected with 500 ng of plasmid DNA in total, for co-transfection each plasmid construct was used in 250 ng amount. For western blots, cells were washed in ice-cold PBS and harvested in SDS loading buffer and then subjected to SDS-PAGE. The samples were then transferred to nitrocellulose membrane. Primary antibodies were the following: Anti-V5 (Invitrogen; 1:5000 dilution), anti-FLAG (Sigma #F1804; 1:5000 dilution), anti-cMyc (#2276, Cell signaling, Danvers, MA, USA) 1:1000 dilution) and anti-tubulin (Sigma #T6199; 1:50,000 dilution). Secondary antibodies (IRDye® 800CW Goat anti-Mouse IgG, LiCOR #926-32210 and IRDye® 680CW Goat anti-Mouse IgG, LiCOR #926-68070; 1:5000 dilution) were used according to the recommendation of the manufacturer and blots were analyzed by Odyssey CLx imaging system (Li-Cor). Kinase inhibitors were used in 2 µM concentration added 6 h before protein level measurements: GSK3—CHR99021 (#S2924, Selleckchem, Munich, Germany), ERK1/2—SCH772984 (Selleckchem, #S7101), p38—SB202190 (Sigma-Aldrich, #S7067), and JNK—JNK-IN-8 (Selleckchem, #S4901). MG132 proteosomal inhibitor (Merck, #474790) was used in 10 µM concentration and cycloheximide (# 239763, Calbiochem, San Diego, CA, USA) was used in 100 µg/mL concentration. HEK293T cells were washed with 500 μL ice-cold PBS twice and gently collected using a pipette 48 h after transfection. The suspension was centrifuged at 500× g for 10 min at 4 °C. After centrifugation, the cell pellet was resuspended in 110 µL ice cold PBS and the fluorescence signal for EGFP (Excitation 485 nm; Emission 515 nm) and DsRed (Excitation 550 nm; Emission 580 nm) was measured in Corning 384-well microplate (#4514) using a plate reader (CytationTM 3, BioTek Instruments, Winooski, VT, USA).

FBXW7 = test: Ratiometric EGFP/DsRed protein degradation assay with degron probes; format: cell-based, human; conditions: HEK293T + FBXW7, MG132, EGFP/DsRed ratio
[2] = test system: FBXW7-mediated protein degradation; test: Western blot of protein levels in FBXW7-transfected cells; format: cell-based, HEK293T cells
Experimental: as §1, with “concentration.” for “concentration. HEK293T cells were washed with 500 μL ice-cold PBS twice and gently collected using a pipette 48 h after transfection. The suspension was centrifuged at 500× g for 10 min at 4 °C. After centrifugation, the cell pellet was resuspended in 110 µL ice cold PBS and the fluorescence signal for EGFP (Excitation 485 nm; Emission 515 nm) and DsRed (Excitation 550 nm; Emission 580 nm) was measured in Corning 384-well microplate (#4514) using a plate reader (CytationTM 3, BioTek Instruments, Winooski, VT, USA).”

Skp1-FBXW7 complex = molecular target: T1, Skp1-FBXW7 complex (Homo sapiens, UniProt P63208+Q969H0); test: Fluorescence polarization direct titration of labeled CCNE peptide; format: binding; conditions: FP direct titration, 50 nM CF-labeled CCNE peptide with increasing Skp1-FBXW7; 20 mM Tris pH 8.0, 100 mM NaCl, 0.05% Brij35P, 2 mM TCEP; value printed in plot
T1 construct: human FBXW7 (263-707) with an N-terminal hexa-histidine (His6) tag; His6 (N, cleaved yes); made in house; host or cells: E. coli Rosetta (DE3)
Experimental: Truncated Skp1 (1-149) and human FBXW7 (263-707) with an N-terminal hexa-histidine (His6) tag were cloned into a bicistronic plasmid (pMG950) and were co-expressed in E. coli Rosetta (DE3) strain. The Skp1-FBXW7 complex was purified using affinity, anion exchange, and gel filtration chromatography. The DNA expression plasmid was transformed into E. coli Rosetta (DE3) strain and grown in LB until OD600 = 0.5, protein expression was induced with 100 µM isopropyl-β-d-1-thigalatopyaranoside (IPTG) overnight at 18 °C. The cell pellet was lysed, and the recombinant protein was purified using Ni-NTA agarose beads. Before further purification the His6-tag was removed by using the TEV protease and then the protein complex was further purified using anion exchange chromatography twice, first with a Resource Q and then with a Mono Q column (pH = 8). Finally, the complex was subjected to size-exclusion chromatography in 20 mM Tris, pH = 8, 150 mM NaCl, and 1 mM DTT using a Superdex200 10/300 column (GE Healthcare, Chicago, IL, USA). The eluted fractions were pooled together and were supplemented with 10% glycerol and 2 mM TCEP before concentration and storage. […]

T1 sequence (Q969H0 263-707): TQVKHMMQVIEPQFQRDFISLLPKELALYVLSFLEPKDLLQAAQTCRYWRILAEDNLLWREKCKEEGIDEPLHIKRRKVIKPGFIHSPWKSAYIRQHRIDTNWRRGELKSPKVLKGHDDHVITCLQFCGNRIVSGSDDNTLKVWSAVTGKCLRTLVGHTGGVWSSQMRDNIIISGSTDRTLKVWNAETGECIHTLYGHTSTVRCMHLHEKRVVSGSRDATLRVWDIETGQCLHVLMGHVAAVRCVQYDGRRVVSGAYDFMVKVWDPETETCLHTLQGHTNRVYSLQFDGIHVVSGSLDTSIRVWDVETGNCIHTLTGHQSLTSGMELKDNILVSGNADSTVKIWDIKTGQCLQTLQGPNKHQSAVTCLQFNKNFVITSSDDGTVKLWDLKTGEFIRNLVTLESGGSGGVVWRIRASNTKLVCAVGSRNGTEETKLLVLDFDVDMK
T1 sequence (P63208 1-149 partner limits assumed): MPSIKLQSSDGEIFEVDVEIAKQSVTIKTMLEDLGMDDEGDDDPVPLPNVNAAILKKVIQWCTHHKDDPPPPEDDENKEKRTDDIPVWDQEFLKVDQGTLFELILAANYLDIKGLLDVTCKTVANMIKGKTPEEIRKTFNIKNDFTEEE

Structure (SMILES): Cc1cnc(-c2cnc(NCCNc3ccc(C#N)cn3)nc2-c2ccc(Cl)cc2Cl)[nH]1 [CHR99021]
- effect on FBXW7-mediated degradation of full-length constructs ([1]; HEK293T, inhibitor 2 µM added 6 h before DsRed/EGFP measurement): no effect

Structure (SMILES): Cc1cc(NC(=O)c2cccc(NC(=O)/C=C/CN(C)C)c2)ccc1Nc1nccc(-c2cccnc2)n1 [JNK-IN-8]
- effect on ARID4B level ([1]; full-length ARID4B, HEK293T + FBXW7, inhibitor 2 µM, 6 h): significant effect
- ZMIZ1 level ([1]; 6 h): affected

Structure (SMILES): CC(C)C[C@@H](C=O)NC(=O)[C@H](CC(C)C)NC(=O)[C@H](CC(C)C)NC(=O)OCc1ccccc1 [MG132] (Cbz-Leu-Leu-Leu-aldehyde)
- CycEco-EGFP probe degradation (FBXW7): blocked
- protein level of the CycECO-V5 probe ([2]; HEK293T transfected with FBXW7 plasmid, MG132 10 µM, anti-V5 western blot): counteracted the effect of FBXW7 expression
- protein levels of full-length constructs in the presence of FBXW7 ([2]; KLF4, ETV5, ARID4B, CDT1, ZMIZ1, JAZF1 V5-tagged constructs, HEK293T, MG132 10 µM, western blot): counteracted the effect of FBXW7

Structure (SMILES): Oc1ccc(-c2nc(-c3ccncc3)c(-c3ccc(F)cc3)[nH]2)cc1 [SB202190]
- degradation of JAZF1 ([1]; full-length JAZF1, HEK293T + FBXW7, inhibitor 2 µM, 6 h): lower
- ZMIZ1 level ([1]; 6 h): affected
- FBXW7-mediated degradation of the JAZF1-SUZ12 fusion construct ([2]; HEK293T co-transfected with Fusion WT and FBXW7, inhibitor 2 µM, anti-Myc western blot): counteracted

Structure (SMILES): O=C(Nc1ccc2[nH]nc(-c3ccncc3)c2c1)[C@@H]1CCN(CC(=O)N2CCN(c3ccc(-c4ncccn4)cc3)CC2)C1 [SCH772984]
- ZMIZ1 level ([1]; 6 h): affected

Structure (SMILES): CC(C)C[C@H](NC(=O)CNC(=O)[C@H](CO)NC(=O)[C@@H]1CCCN1C(=O)c1ccc2c(c1)C(=O)OC21c2ccc(O)cc2Oc2cc(O)ccc21)C(=O)N[C@@H](CC(C)C)C(=O)N[C@H](C(=O)N1CCC[C@H]1C(=O)N1CCC[C@H]1C(=O)N[C@@H](CCC(N)=O)C(=O)N[C@@H](COP(=O)(O)O)C(=O)NCC(=O)N[C@@H](CCCCN)C(=O)N[C@@H](CCCCN)C(=O)N[C@@H](CCC(N)=O)C(=O)O)[C@@H](C)OP(=O)(O)O [fluorescently labeled CCNE peptide] (5FAM-PSGLL[pT]PPQ[pS]GKKQ-OH)
- Kd (Skp1-FBXW7 complex): 2.8 ± 1.6 nM
